The record followed here is the supplement of paper PMC10307832.

Common to all, as to assay: relative viability (nuclei count vs DMSO), 5 days (fraction); higher = more cells survive
Compound in the test “RU-SKI 43 + Dasatinib”: CC[C@@H](C)CNCC(=O)N1CCC2=C([C@@H]1COC3=CC=CC(=C3)C)C=CS2 [RU-SKI 43] + Cc1nc(Nc2ncc(C(=O)Nc3c(C)cccc3Cl)s2)cc(N2CCN(CCO)CC2)n1 [Dasatinib] (partner 0.075 µM)
The method, boiled down:
(§1)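 Nuclei were stained with Hoechst during a one-step fixation (final 0.05% Triton X-100, 1% formaldehyde, 1 ug/ml Hoechst) carried out 5 days after dosing, then counted on 4× images. The cells, lung cancer lines in 1536-well plates, had been dosed by pin tool the day after seeding with one drug alone or a fixed anchor-drug dose plus five library-drug doses (not always all listed) in √10 steps. Relative viability is the nuclei count in treated wells divided by that in vehicle wells, and each value is the median of duplicate plates.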

Compound in the test “Irinotecan + Foretinib”: CCc1c2c(nc3ccc(OC(=O)N4CCC(N5CCCCC5)CC4)cc13)-c1cc3c(c(=O)n1C2)COC(=O)[C@]3(O)CC [Irinotecan] + COc1cc2c(Oc3ccc(NC(=O)C4(C(=O)Nc5ccc(F)cc5)CC4)cc3F)ccnc2cc1OCCCN1CCOCC1 [Foretinib] (partner 0.25 µM)
In outline:
as §1

Compound in the test “RU-SKI 43 + Phenformin”: CC[C@@H](C)CNCC(=O)N1CCC2=C([C@@H]1COC3=CC=CC(=C3)C)C=CS2 [RU-SKI 43] + N=C(N)NC(=N)NCCc1ccccc1 [Phenformin] (partner 250 µM)
The method, boiled down: as §1

Compound in the test “RU-SKI 43 + Bortezomib”: CC[C@@H](C)CNCC(=O)N1CCC2=C([C@@H]1COC3=CC=CC(=C3)C)C=CS2 [RU-SKI 43] + CC(C)C[C@H](NC(=O)[C@H](Cc1ccccc1)NC(=O)c1cnccn1)B(O)O [Bortezomib] (partner 0.002 µM)
In outline:
as §1

For the cell line UMC-11, the relative viability with RU-SKI 43 + Dasatinib (first compound 0.1 µM) is 0.526; with RU-SKI 43 + Dasatinib (first compound 0.3162 µM), 0.685; in the test with RU-SKI 43 + Dasatinib (first compound 1 µM) it was 0.577; with RU-SKI 43 + Dasatinib (first compound 3.162 µM), 0.516; with RU-SKI 43 + Dasatinib (first compound 10 µM) it was 0.471; with Irinotecan + Foretinib (first compound 0.6325 µM) it was 0.704. Also, the relative viability with Irinotecan + Foretinib (first compound 2 µM) came to 0.518; with Irinotecan + Foretinib (first compound 6.325 µM), 0.337; with Irinotecan + Foretinib (first compound 20 µM), 0.237; with RU-SKI 43 + Phenformin (first compound 0.1 µM) it was 0.349; with RU-SKI 43 + Phenformin (first compound 0.3162 µM), 0.366; with RU-SKI 43 + Phenformin (first compound 1 µM) it was 0.33. Further, the relative viability with RU-SKI 43 + Phenformin (first compound 3.162 µM) was determined as 0.32; in the test with RU-SKI 43 + Phenformin (first compound 10 µM), 0.344; with RU-SKI 43 + Bortezomib (first compound 0.1 µM), 0.731; with RU-SKI 43 + Bortezomib (first compound 0.3162 µM), 1.1; with RU-SKI 43 + Bortezomib (first compound 1 µM), 1.05; with RU-SKI 43 + Bortezomib (first compound 3.162 µM), 0.666. Moreover, the relative viability with RU-SKI 43 + Bortezomib (first compound 10 µM) worked out at 0.927.
